According to US5618675A, “Methods and compositions for detecting lipopolysaccharides using CAP18 fragments” (Panorama Research, Inc., dated 1997):
Read-outs that look alike come from different tables or passages of the source.

Legend:
[1] = tested on: Human plasma; test: Activated partial thromboplastin time (APTT); type: biochemical
Protocol: (§1) Clotting method: Human plasma (Ortho plasma control, Ortho Diagnostic Co.). ATPP reagent (Organotechnika, Tokyo, Japan). Standard tissue factor, rabbit brain thromboplastin (Simplastin, ONO Pharmaceutical, Tokyo, Japan). Purified human factor VII, factor X, factor Xa (Sigma Chemical Co., St. Louis, Mo.). Russell Viper venom (RVV) and Echis carinatus venom (ECV, Sigma Co.).
Instrumentation: Clotting assays were carried out using a Fibrometer (BioQuest Division, Becton Dickinson; Cokeysville, […]., USA).
Human plasma (100 μl), 100 μl of APTT reagent and 100 μl of peptide was incubated at 37° C. for 5 min after which CaCl2 was added and clotting time measured.

[2] = tested on: Salmonella typhimurium; test: Antibacterial CFU assay; conditions: read-out: anti-bacterial IC50 (CFU); FIG. 6D
[3] = tested on: Salmonella minnesota ReLPS sensitized sheep erythrocytes; test: LPS hemagglutination assay (MAC); type: binding
Protocol: For hemagglutination assays, erythrocytes were sensitized with LPS as follows. One ml of 1% erythrocyte suspension (human 0 type, C3H/HeN mouse or sheep) was mixed with 0.2 ml of LPS solution and incubated at 37° C. for 30 min, followed by washing with phosphate buffered saline (PBS), and then the concentration of suspension was adjusted to 1.0%. In the case of S-LPS, the solution was heated at 100° C. for 1 hour before sensitization of erythrocytes. […] Activity of CAP was expressed as a minimum agglutinating concentration (MAC) of CAP. According to the method of Kirikae et al. (1986) Microbiol. Immunol. 30:269-274, 50 μl of 2-fold serial dilution of Re-LPS was added to 50 μl of 1.0% rabbit erythrocyte suspension, and incubated at 37° C. for 3, hour. Minimum agglutinating concentration of Re-LPS was expressed as 1 HA unit.

[4] = tested on: RAW 264.7 cells; type: cell-based, murine; conditions: for Inhibition of LPS-induced RNI-IC50: LPS-induced (2.5 ng/ml LPS in FIG. 6B); for concentrations at which peptides are active in the bioassay: day-to-day variation
Protocol: From the sequence of the CAP18 cDNA, it was apparent that the putative N-terminal peptide of CAP18 was in fact an internal fragment of the CAP18 protein. We therefore tried to reconfirm the original protein sequence. Neutrophil-derived heparin bound cationic proteins were prepared as described above and applied to a C18 reverse phase HPLC (FIG. 1). We sequenced the major peaks. Peaks at fractions 14.5 and 15.2 correspond to defensins MCP1 and MCP2 (Territo et al. (1989) J. Clin. Invest. 84:2017-2019), respectively. Fraction 25.8 is macrophage related protein 14 (MRP14) (Odink et al. (1987) Nature 330:80-82). The fraction at 20.3 minutes corresponds to a fragment of CAP18 of approximately 4-5 kD. […] The murine macrophage cell line RAW 264.7 (obtained from ATCC) and thioglycolate-elicited murine peritoneal exudate cells are used to produce RNI. Cells are cultured at 1×10^6 /ml. in RPMI-1640 +2.5% FCS in 24 well plates in the presence or absence of different concentrations of LPS or murine rlFNγ. After 24 hr. incubation at 37° C. the cell free supernatant is collected and tested for the presence of RNI. Accumulation of nitrite in the medium is measured by a colorimetric assay based on the Griess reaction (Green et al. (1982) Anal. Biochem. 126:11) using sodium nitrite as standards. Sample (50 μl) is mixed with 50 μl of Griess reagent (1% sulfanilamide, 0.1% naphthalene diamine dihydrochloride, 2.5% H3 PO4) and after 10 min. at room temperature absorbance is read at 570 nm.

[5] = tested on: Candida albicans; test: Antimicrobial activity; conditions: range 0-20 μg/ml
[6] = tested on: methicillin-sensitive Staphylococcus aureus; test: Antibacterial CFU assay; conditions: for IC50: read-out: IC50, inhibition of CFU
[7] = tested on: Klebsiella pneumoniae; test: Antibacterial CFU assay
[8] = target: T1, prothrombin (factor II) (Homo sapiens, UniProt P00734); test: Prothrombin activation by Echis carinatus venom (ECV); type: biochemical; conditions: FIG. 17A
Protocol: (§2) Synthetic chromogenic substrate method: Substrate for factor Xa, S2222 (Kabi, Bz-Ile-Glu-Arg-pNA) was used. Substrate for factor II (prothrombin), Boc-Val-Pro-Arg-pNA (Sigma Chemical Co.) was used.
A reaction mixture of prothrombin (factor II) (0.1 unit/ml, 200 μl), ECV (1 unit/ml, 200 μl), various concentration of peptide (70 μl), 50 μl of 25 mM-CaCl2 and 180 μl of Tris buffer was incubated at 37° C. for 10 min. To 300 μl of the reaction mixture, 60 μl of 4mM-thrombin substrate and 240 μl of buffer was added and further incubated for 15 min.

[9] = target: T1, prothrombin (factor II); test: Prothrombin activation by factor Xa; type: biochemical; conditions: Xa formed from tissue factor, factor VII and factor X, FIG. 17B
Protocol: as §2
a) Factor X activation. Factor X (1 unit/ml, 400 μl) was activated by incubating with a reaction mixture of factor VII (1 unit/ml, 400 μl), tissue factor (5 mg/ml, 100 μl) and CaCl2 at 37° C. for 10 min.
b) Prothrombin (factor II) activation.
c) Hydrolysis of thrombin substrate. To 300 μl of the reaction mixture (step b), thrombin 60 μl of substrate and 240 μl of Tris buffer was added and further incubated for 15 min.

[10] = tested on: methicillin-resistant Staphylococcus aureus; test: Antibacterial CFU assay; conditions: for IC50: read-out: IC50, inhibition of CFU
[11] = target: T2, factor Xa (Homo sapiens, UniProt P00742); test: Direct inhibition of Xa, substrate S2222; type: biochemical; conditions: for direct Xa inhibition: concentrations over 10 μg/ml, substrate S2222; for IC50 / IC50, Direct Xa: synthetic substrate
T2 construct: purchased Sigma Chemical Co., St. Louis, Mo
T2 sequence (P00742 41-179 limits assumed): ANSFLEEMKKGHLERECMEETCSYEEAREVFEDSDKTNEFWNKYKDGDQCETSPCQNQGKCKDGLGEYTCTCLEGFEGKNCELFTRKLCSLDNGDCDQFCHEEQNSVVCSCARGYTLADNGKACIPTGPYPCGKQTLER
T2 sequence (P00742 235-488 limits assumed): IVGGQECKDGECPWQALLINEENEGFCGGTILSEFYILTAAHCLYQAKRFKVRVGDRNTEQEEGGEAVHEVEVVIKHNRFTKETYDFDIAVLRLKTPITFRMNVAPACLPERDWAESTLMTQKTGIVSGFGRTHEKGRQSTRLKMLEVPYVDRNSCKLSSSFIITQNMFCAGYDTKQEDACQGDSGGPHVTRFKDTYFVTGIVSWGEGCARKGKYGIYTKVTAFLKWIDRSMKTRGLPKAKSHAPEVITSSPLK
Excerpt: as §1, §2
Next the effect of the RNIP peptides on the conversion of factor X to Xa was studied by two methods. […] In summary these studies confirmed that the peptides inhibit the clotting cascade by inhibiting the conversion of factor X to Xa.

Q: What does the source list for “36-1: synthetic rabbit RNIP-derived fragment, amino acids 135-166 of SEQ ID NO:4 (GLRKRLRKFRNKIKEKLKKIGQKIQGLLPKLA)”?
A: IC50, Activate Partial Thromboplastin time [1]: 3.8 µg/mL; IC50 ([1]; read-out: IC50, Activate Partial Thromboplastin time): 700 nM; IC50 [2]: 220 to 280 nM; Hemagglutination MAC (minimum agglutinating concentration) [3]: 3.9 µg/mL; activity in hemagglutination and inhibition of LPS-induced RNI [4]: active; Inhibition of LPS-induced RNI-IC50 [4]: 0.08 µg/mL; concentrations at which peptides are active in the bioassay [4]: 10 to 50 nM; activity versus Candida albicans [5]: inactive; IC50, inhibition of CFU [6]: 0.58 µg/mL; IC50 [6]: 110 nM; anti-bacterial IC50 (CFU) [7]: < 0.54 µg/mL; inhibition of Echis carinatus venom activation of purified factor II to IIa [8]: inhibited; IC50, factor II activated by Xa [9]: < 1.8 µg/mL; IC50 ([9]; read-out: IC50, factor II activated by Xa): < 300 nM; IC50, inhibition of CFU [10]: 0.72 µg/mL; IC50 [10]: 130 nM; direct Xa inhibition [11]: No evidence of direct Xa inhibition; IC50 [11]: 8000 to 46000 nM; IC50, Direct Xa [11]: 45 to 250 µg/mL

Q: With “RNIP: reactive nitrogen inhibitory protein, amino acids 135-171 of SEQ ID NO:4 (rabbit CAP18 C-terminus); purified from granulocytes or synthetic (#197) (GLRKRLRKFRNKIKEKLKKIGQKIQGLLPKLAPRTDY)” as the substance, how does the “IC50, Activate Partial Thromboplastin time” value [1] read?
A: 3.2 µg/mL

Q: What about the IC50 [2] of the same substance?
A: 220 to 280 nM

Q: And the “Hemagglutination MAC (minimum agglutinating concentration)” value [3]?
A: 7.9 µg/mL

Q: And the “activity in hemagglutination and inhibition of LPS-induced RNI” value [4]?
A: active

Q: What about the IC50 ([4]; 2.5 ng/ml LPS, FIG. 6B, read-out: 50% inhibitory concentration (IC50), LPS-induced RNI production) of the same substance?
A: ~30 nM

Q: And the “capacity to inhibit LPS-stimulated nitrogen radical release from macrophages” value ([4]; HPLC-purified rabbit peptides, FIG. 5)?
A: active

Q: And the “reactive nitrogen intermediates (RNI)” value ([4]; LPS (2.5 ng/ml), RNIP (1:1), stimulus alone 27)?
A: 4 µM

Q: And the “reactive nitrogen intermediates (RNI)” value ([4]; LPS (2.5 ng/ml), RNIP (1:10), stimulus alone 27)?
A: 16 µM

Q: What about the “reactive nitrogen intermediates (RNI)” value ([4]; LPS (2.5 ng/ml), RNIP (1:100), stimulus alone 27) of the same substance?
A: 24 µM

Q: What about the “Inhibition of LPS-induced RNI-IC50” value [4] of the same substance?
A: about 0.2 μg/ml

Q: And the “Inhibition of LPS-induced RNI-IC50” value ([4]; listed as 197/RNIP)?
A: 0.2 µg/mL

Q: And the “reactive nitrogen intermediates (RNI)” value ([4]; Murine IFNγ (250 U), RNIP (1:1), stimulus alone 30)?
A: 15 µM

Q: What about the “reactive nitrogen intermediates (RNI)” value ([4]; Murine IFNγ (250 U), RNIP (1:10), stimulus alone 30) of the same substance?
A: 18 µM

Q: And the “reactive nitrogen intermediates (RNI)” value ([4]; Murine IFNγ (250 U), RNIP (1:100), stimulus alone 30)?
A: 20 µM

Q: What about the “concentrations at which peptides are active in the bioassay” value [4] of the same substance?
A: 10 to 50 nM

Q: And the “activity versus Candida albicans” value [5]?
A: inactive

Q: What about the “IC50, inhibition of CFU” value [6] of the same substance?
A: 0.94 µg/mL

Q: And the IC50 [6]?
A: 150 nM

Q: And the “anti-bacterial IC50 (CFU)” value [7]?
A: < 0.44 µg/mL

Q: And the IC50 ([7]; read-out: anti-bacterial IC50 (CFU))?
A: < 70 nM

Q: And the “IC50, Echis carinatus venom activation of factor II to IIa” value [8]?
A: 9.4 µg/mL

Q: What about the “inhibition of Echis carinatus venom activation of purified factor II to IIa” value [8] of the same substance?
A: inhibited

Q: And the IC50 ([8]; read-out: IC50, Echis carinatus venom activation of factor II to IIa)?
A: 1500 nM

Q: And the “IC50, factor II activated by Xa” value [9]?
A: 2.8 µg/mL

Q: What about the “IC50, inhibition of CFU” value [10] of the same substance?
A: 1 µg/mL

Q: And the IC50 [10]?
A: 160 nM

Q: And the “direct Xa inhibition” value [11]?
A: No evidence of direct Xa inhibition

Q: What about the IC50 [11] of the same substance?
A: 9000 to 33000 nM

Q: And the “IC50, Direct Xa” value [11]?
A: 55 to 200 µg/mL
